Reference: patent US4745124A, “Orally effective anti-hypertensive agents” (priority 1983, dated 1988)

System: pressor effects of angiotensin I
Test: oral effectiveness: blood pressure response to angiotensin I in anesthetized rats
Assay type: in vivo, rat
Procedure, shortened: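 Fasted rats under pentobarbital anesthesia (50-60 mg/kg i.p.), ventilated, with carotid arterial pressure recorded; i.v. angiotensin I (80 ng, 160 ng or 400 ng/kg) or angiotensin II (80 ng) challenges repeated at timed intervals after oral gavage of compound (2-20 mg/kg, 10 mg, 17 or 23 μmol/kg) in aqueous NaHCO3.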

C[C@H](CSC(=O)C(Cc1ccccc1)NC(=O)c1ccccc1)C(=O)N1CCC[C@H]1C(=O)O (stereo partly drawn) [Compound (I), 2-benzoylphenylalanylthio-2-D-methylpropanoyl-L-proline]
Blood Pressure Response to 80 ng of Angiotensin I (oral 2 mg/kg, 6 min, Rat 3): 111 % of control | Blood Pressure Response to 80 ng of Angiotensin I (oral 2 mg/kg, 12 min, Rat 3): 93 % of control | Blood Pressure Response to 80 ng of Angiotensin I (oral 2 mg/kg, 18 min, Rat 3): 81 % of control | Blood Pressure Response to 80 ng of Angiotensin I (oral 2 mg/kg, 24 min, Rat 3): 85 % of control | Blood Pressure Response to 80 ng of Angiotensin I (oral 2 mg/kg, 35 min, Rat 3): 56 % of control | Blood Pressure Response to 80 ng of Angiotensin I (oral 2 mg/kg, 58 min, Rat 3): 56 % of control | Blood Pressure Response to 80 ng of Angiotensin I (oral 2 mg/kg, 68 min, Rat 3): 52 % of control | Blood Pressure Response to 80 ng of Angiotensin I (oral 2 mg/kg, 88 min, Rat 3): 30 % of control | Blood Pressure Response to 80 ng of Angiotensin I (oral 2 mg/kg, 118 min, Rat 3): 37 % of control | Blood Pressure Response to 80 ng of Angiotensin I (oral 2 mg/kg, 138 min, Rat 3): 60 % of control | Blood Pressure Response to 80 ng of Angiotensin I (oral 2 mg/kg, 169 min, Rat 3): 37 % of control | Blood Pressure Response to 80 ng of Angiotensin I (oral 2 mg/kg, 185 min, Rat 3): 37 % of control | Blood Pressure Response to 80 ng of Angiotensin I (oral 2 mg/kg, 205 min, Rat 3): 44 % of control | Blood Pressure Response to 80 ng of Angiotensin I (oral 5 mg/kg, 6 min, Rat 2): 67 % of control | Blood Pressure Response to 80 ng of Angiotensin I (oral 5 mg/kg, 12 min, Rat 1): 41 % of control | Blood Pressure Response to 80 ng of Angiotensin I (oral 5 mg/kg, 12 min, Rat 2): 57 % of control | Blood Pressure Response to 80 ng of Angiotensin I (oral 5 mg/kg, 18 min, Rat 1): 36 % of control | Blood Pressure Response to 80 ng of Angiotensin I (oral 5 mg/kg, 24 min, Rat 2): 43 % of control | Blood Pressure Response to 80 ng of Angiotensin I (oral 5 mg/kg, 35 min, Rat 1): 23 % of control | Blood Pressure Response to 80 ng of Angiotensin I (oral 5 mg/kg, 35 min, Rat 2): 37 % of control | Blood Pressure Response to 80 ng of Angiotensin I (oral 5 mg/kg, 48 min, Rat 1): 18 % of control | Blood Pressure Response to 80 ng of Angiotensin I (oral 5 mg/kg, 48 min, Rat 2): 17 % of control | Blood Pressure Response to 80 ng of Angiotensin I (oral 5 mg/kg, 58 min, Rat 1): 23 % of control | Blood Pressure Response to 80 ng of Angiotensin I (oral 5 mg/kg, 58 min, Rat 2): 17 % of control | Blood Pressure Response to 80 ng of Angiotensin I (oral 5 mg/kg, 68 min, Rat 2): 20 % of control | Blood Pressure Response to 80 ng of Angiotensin I (oral 5 mg/kg, 78 min, Rat 2): 17 % of control | Blood Pressure Response to 80 ng of Angiotensin I (oral 5 mg/kg, 88 min, Rat 2): 13 % of control | Blood Pressure Response to 80 ng of Angiotensin I (oral 5 mg/kg, 118 min, Rat 1): 23 % of control | Blood Pressure Response to 80 ng of Angiotensin I (oral 5 mg/kg, 185 min, Rat 2): 27 % of control | Blood Pressure Response to 80 ng of Angiotensin I (oral 5 mg/kg, 205 min, Rat 2): 33 % of control | Blood Pressure Response to 80 ng of Angiotensin I (oral 5 mg/kg, 213 min, Rat 2): 33 % of control | Blood Pressure Response to 80 ng of Angiotensin I (oral 5 mg/kg, 226 min, Rat 2): 43 % of control | duration of drug action (oral, 2 or 5 mg/kg): > 226 min
